Source: patent publication US9776972B2, “Pyrazole derivatives as arginine methyltransferase inhibitors and uses thereof” (priority 2013, dated 2017)

How the values were obtained:
[1] = biological target: T1, human PRMT1 (Homo sapiens, UniProt Q99873); assay: PRMT1 Biochemical Assay (3H-SAM Flashplate, peptide substrate); conditions: single experiment or average of multiple experiments
T1 construct: GST-tagged PRMT1; made in house; host or cells: High Five insect cells (baculovirus)
In short: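 GST-tagged PRMT1 from baculovirus-infected cells, preincubated with compounds 30 min at room temperature in 20 mM Bicine pH 7.6, 1 mM TCEP, 0.005% BSG, 0.002% Tween 20. Reaction started with ³H-SAM plus biotinylated peptide, stopped with 300 µM cold SAM.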

[2] = biological target: human PRMT8 (Homo sapiens, UniProt Q9NR22); assay: PRMT8 Biochemical Assay (3H-SAM Flashplate, peptide substrate); conditions: single experiment or average of multiple experiments
In short: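 E. coli-expressed human PRMT8 (GST removed) was preincubated with compound for 30 min at room temperature in 20 mM Bicine pH 7.6 with TCEP, BSG and Tween 20. 3H-SAM and a biotinylated H4 31-45 peptide were then added, and the reaction was stopped with cold SAM. Labelled peptide was captured on streptavidin Flashplates; % inhibition was calculated against DMSO and SAH controls and fitted to a 3- or 4-parameter curve.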

Sequence of human PRMT8 (Q9NR22 whole entry): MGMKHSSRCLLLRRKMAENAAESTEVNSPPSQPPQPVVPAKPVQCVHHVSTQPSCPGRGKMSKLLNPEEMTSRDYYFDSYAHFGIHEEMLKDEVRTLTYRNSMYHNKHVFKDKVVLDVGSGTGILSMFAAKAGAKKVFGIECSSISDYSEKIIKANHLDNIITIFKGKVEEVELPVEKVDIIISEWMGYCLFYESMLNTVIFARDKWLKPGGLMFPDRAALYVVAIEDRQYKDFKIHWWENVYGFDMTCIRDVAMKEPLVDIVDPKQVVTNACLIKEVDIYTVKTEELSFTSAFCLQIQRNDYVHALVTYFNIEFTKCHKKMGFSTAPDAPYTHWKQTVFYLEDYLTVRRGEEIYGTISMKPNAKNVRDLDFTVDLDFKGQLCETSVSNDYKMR
T1 sequence (Q99873 with tags, fused parts or gaps): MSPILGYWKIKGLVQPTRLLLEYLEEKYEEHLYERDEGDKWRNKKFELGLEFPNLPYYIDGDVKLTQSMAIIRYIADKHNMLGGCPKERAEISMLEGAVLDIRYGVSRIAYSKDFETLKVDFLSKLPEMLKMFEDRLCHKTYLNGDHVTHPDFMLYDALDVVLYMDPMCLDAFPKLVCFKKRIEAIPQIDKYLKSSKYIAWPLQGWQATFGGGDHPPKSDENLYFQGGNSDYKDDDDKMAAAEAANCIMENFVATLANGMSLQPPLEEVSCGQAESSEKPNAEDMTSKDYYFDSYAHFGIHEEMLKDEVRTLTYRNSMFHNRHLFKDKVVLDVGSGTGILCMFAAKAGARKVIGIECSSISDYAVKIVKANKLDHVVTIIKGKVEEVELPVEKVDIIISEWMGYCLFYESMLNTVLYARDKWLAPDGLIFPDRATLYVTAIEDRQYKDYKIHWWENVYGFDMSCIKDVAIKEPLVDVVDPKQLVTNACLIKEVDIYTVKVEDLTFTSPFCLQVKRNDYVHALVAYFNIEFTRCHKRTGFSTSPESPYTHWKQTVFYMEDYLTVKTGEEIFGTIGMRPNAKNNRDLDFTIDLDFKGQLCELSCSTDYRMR

Compound	IC50 [1] [nM]	IC50 [2] [nM]
CN(CCN)Cc1c[nH]nc1-c1ccc(Oc2ccc(F)cc2)cc1 [Compound 225, N^1-((3-(4-(4-fluorophenoxy)phenyl)-1H-pyrazol-4-yl)methyl)-N^1-methylethane-1,2-diamine]	3.19	35.8
CN(CCN)Cc1c[nH]nc1-c1ccc(Oc2ccccc2)c(C(=O)N(C)C)c1 [Compound 226]	26.8	7250
CNC(=O)c1cc(-c2n[nH]cc2CN(C)CCN)ccc1Oc1ccccc1 [Compound 227]	24.3	660
CNCCN(C)Cc1c[nH]nc1-c1ccc(OCCCOC)c(Cl)c1 [Compound 228]	5.55	316
